Target: CDK2 (human) (UniProt P24941)
Assay: Cell-Based Assay

SMILES | IC50 (a549) [µM] | IC50 (ht-29) [µM] | IC50 (saos-2) [µM] | IC50 (hela) [µM] | IC50 (hs-27) [µM] | IC50 (imr90) [µM] | IC50 (mcf-7) [µM] | IC50 (w138) [µM]
Cc1ccc(Nc2nccc(-c3c(C)[nH]c(C#N)c3C)n2)cc1F | 1.49 | 0.28 | 2.23 | – | – | – | – | –
Cc1[nH]c(C#N)c(C)c1-c1ccnc(Nc2ccc(I)cc2)n1 | 0.51 | 0.11 | 0.75 | 0.09 | 35.1 | 37.3 | 0.45 | 21.3
Cc1[nH]c(Br)c(C)c1-c1ccnc(Nc2cccc([N+](=O)[O-])c2)n1 | 7.56 | 2.92 | 12.4 | – | – | – | – | –
Cc1c[nH]c(C)c1-c1ccnc(Nc2ccc(C(F)(F)F)cc2)n1 | 15 | 3.1 | 17 | – | – | – | – | –
Cc1[nH]c(CN2CCN(C)CC2)c(C)c1-c1ccnc(Nc2ccc(F)cc2)n1 | 13.8 | 5.09 | 14.2 | – | – | – | – | –
Cc1[nH]c(C#N)c(C)c1-c1ccnc(Nc2ccc(N(C)C)cc2)n1 | 1.41 | 0.17 | 1.5 | – | – | – | – | –
Cc1[nH]c(CN(C)C)c(C)c1-c1ccnc(Nc2ccc(F)cc2)n1 | 2.76 | 3.2 | 0.7 | – | – | – | – | –
CCN(CC)Cc1[nH]c(C)c(-c2ccnc(Nc3ccc(F)cc3)n2)c1C | 0.97 | 1.31 | 1.61 | – | – | – | – | –
Cc1cc(Nc2nccc(-c3c(C)[nH]c(C#N)c3C)n2)ccc1Cl | 4.37 | 3.27 | 5.88 | – | – | – | – | –
Cc1ccc(Nc2nccc(-c3c(C)[nH]c(C#N)c3C)n2)cc1I | 3.6 | 0.72 | 3.12 | – | – | – | – | –
Cc1[nH]c(C#N)c(C)c1-c1ccnc(Nc2cccc(O)c2)n1 | – | – | 0.9 | – | – | – | – | –
Cc1[nH]c(C#N)c(C)c1-c1ccnc(Nc2ccc(C(F)(F)F)cc2)n1 | 3.64 | 0.95 | 3.4 | – | – | – | – | –
Cc1[nH]c([N+](=O)[O-])c(C)c1-c1ccnc(Nc2ccc(N(C)C)cc2)n1 | 3.05 | 0.61 | 2.65 | – | – | – | – | –
Cc1c[nH]c(C)c1-c1ccnc(Nc2ccc(I)c(Cl)c2)n1 | 4.39 | – | – | – | – | – | – | –
Cc1[nH]c(C#N)c(C)c1-c1ccnc(Nc2ccc(F)cc2)n1 | – | – | – | – | 15.1 | 20.8 | – | 9.6

From the Kinase Knowledgebase extract (Sharma et al. 2016)
